Details of data set [1]: method as in PMID 30544701. The following applies: method not given, ref [45], cited from earlier work.
For another data set, the system named is HT29 cells. In words: Intracellular accumulation in HT29 colon cancer cells. In kind it is in vitro ADME. The following applies: after 24 h. The procedure: (§1) In order to get insight in the barrier role of the CaCo2 model system, we determined the intracellular accumulation of the TKISs at the end of the transport period, in normal monolayers of CaCo2 cells and in several other colon cancer cell lines. At the end of the transport period (both from the B->A and A->B incubations), cells were harvested and intracellular accumulation was determined.
In a different set of experiments, the CaCo2 cells were cultured in 6-wells plates as monolayers until semiconfluency. Two other colon cancer cell lines, WiDr and HT29, were cultured similarly. […]

A short description of data set [2]: CaCo2 Transwell transport (Papp, efflux ratio). In kind it is in vitro ADME, human. The following applies: human. The procedure:
(§2) The Transwell system was developed using the wild type Caco-2 cell line (passage 15–25) cultured in Dulbecco’s […] medium (DMEM) at standard conditions of 37 °C, 5% CO2, and 100% humidity as previously reported. […] To ensure a controlled growth environment the plate was covered with Breathe-Easier cell culture foil during the incubation period. The integrity of the developed monolayer was assessed by TEER before administration of compound solutions and after the final sampling stage.
(§3) The initial concentration of the drug was verified from a 20 µL sample taken immediately from the donor compartment after drug administration (t = 0).
(§4) The permeability coefficient (Papp) represents a measure for the efficiency of transport and was calculated with the following equation: Papp=ΔQ/Δt×V/C0⋅A where ∆Q/∆t = the rate of increase in drug concentration (accumulative mass transport) in the receiver compartment over time (µM/s), V = volume in the receiver compartment (mL), C0 = the initial concentration of drug in the donor compartment (µM), and A = the membrane surface area (cm^2).
(§5) To take into account the slightly nonlinear transfer characteristics of each compound, the rate of increase in drug concentration was determined for each time period and the Papp was then calculated. The average Papp was then determined with units of cm/s × 10^−6 or µm/s.
(§6) The efflux ratio was calculated according to the equation: Efflux ratio=PappB→A/PappA→B.
(§7) Statistical significance was determined using a simple Student’s t-test where a p value of <0.05 was considered significant.
A general note: Passage across Caco-2 layers is used to estimate intestinal permeability.

Data set [3] relates to CaCo2 monolayer. In words: CaCo2 Transwell transport (Papp, efflux ratio). In kind it is in vitro ADME, human. The procedure: as §2, §3, §4, §5, §6, §7
The test system of data set [4] is CaCo2 monolayer. Particulars: 20 µM, previously reported, ref [39], cited from earlier work.
Data set [5] relates to CaCo2 cells. The data set is described as follows: Intracellular accumulation in CaCo2 cells grown as normal monolayers. Format: in vitro ADME, human. Particulars: 20 μM, 2 h. The procedure:
(§8) These cells were exposed to 20 μM of a TKI and were harvested after 2 h for determination of TKI concentration with LC-MS-MS. Values are means ± SEM for the number of experiments described in Figure 3, Figure 4, and Figure 5 and from three separate experiments for the monolayer CaCo2 and WiDr cells. […] A->B, mass transport from A to B; B->A, mass transport from B to A. For AFA, CRI, and DAS, no data in WiDr cells were available. […] The bar heights were not read.
(§9) In a different set of experiments, the CaCo2 cells were cultured in 6-wells plates as monolayers until semiconfluency. Two other colon cancer cell lines, WiDr and HT29, were cultured similarly. These cells were exposed for 2 h to various TKIs at concentrations varying from 50 nM to 20 µM). […] At the end of the incubation, cells were harvested, as described earlier, and extracted for drug analysis using LC-MS-MS as described above.

Data set [6] has as its system WiDr cells. The data set is described as follows: Intracellular accumulation in WiDr colon cancer cells (monolayer). Format: in vitro ADME. Particulars: 20 μM, 2 h. The procedure: as §8, §9
Data set [7] deals with CaCo2 cells. In words: Intracellular accumulation in CaCo2 Transwell cells at the end of the transport period. Format: in vitro ADME, human. The following applies: for Intracellular accumulation at the end of the transfer period (A->B): A->B incubation. The procedure:
as §1, §8, §9

A short description of data set [8]: Disposition in blood compartments (whole blood, plasma, serum) of patients. Format: in vivo, human. The following applies: clinical samples. The procedure:
Each individual sample was divided into two components; a 1 mL of tube of whole blood and 0.5 of plasma, each sample was stored at −20 °C until analysis could be performed. An additional serum sample was also obtained for patients treated with erlotinib. Blood samples for afatinib were obtained from NSCLC patients after 4 days receiving the standard daily dose of 40 mg.
Blood samples were taken at 1, 2, and 30 days after the start of treatment. Samples were separated from the whole blood into plasma, serum, and a packed red blood cell pellet (using the MESED apparatus). In a dose escalation study in order to determine whether a high pulsatile dose of sorafenib could be given to patients, we analyzed red blood cells and whole blood in 12 patients treated with sorafenib at total doses ranging from 2000 to 2800 mg daily. From these patients, samples were collected in 3 cycles.
For sunitinib, initially pharmacokinetic samples were collected over the first 24 h period from a single patient, with a renal cell carcinoma receiving a nonstandard treatment schedule (700 mg biweekly), in comparison to the standard 50 mg daily dose. Whole blood samples were divided into plasma, serum, and a packed red blood cell pellet. This cohort could later be extended with 6 patients treated with 800 mg sunitinib every 2 weeks enrolled in a clinical study to determine the tolerability of pulsatile sunitinib.
Five blood samples were taken over a 5-month period and divided into whole blood, an extracted 100 µL of red blood cells, and a plasma sample.

Data set [9] relates to WiDr cells. The data set is described as follows: Growth inhibition of WiDr cells. Particulars: Homo sapiens, 72 hr exposure, read-out: Concentration leading to 50% growth inhibition. In kind it is cell-based.
Details of data set [10]: method as in PMID 17429625. Particulars: ref [32]; cited from earlier work.

“Also recorded” adds a separate entry of the source. Where two headings read alike, the source gives them in different places. Where only a bound is given, the exact number is not on record here.

One may read the Log P as the decadic logarithm of the partition coefficient of the neutral form, usually between octanol and water. Consider `C#Cc1cccc(Nc2ncnc3cc(OCCOC)c(OCCOC)cc23)c1` [Erlotinib, erlotinib], for which the “Log P” value in [1] is listed as 2.39. Also, the “Log D (pH 5.5)” value in data set [1] was 2.74. For the same compound, in data set [1], the “Log D (pH 7.5)” value is 3.04. For the same compound, the “Intracellular accumulation in HT29 cells” value with HT29 cells worked out at 0.035 pmol/μg protein. Also, the efflux ratio at 180 min, 10 µM in data set [2] (Caco-2, 10 µM, read-out: Efflux Ratio (Papp B–A / Papp A–B)) is 1.6; in [2] (Caco-2, with sorafenib (co-incubated, concentration not stated), 10 µM, with sorafenib, read-out: Efflux Ratio (Papp B–A / Papp A–B)) it was 1.4. The Papp A→B at 180 min, 10 µM in data set [2] (Caco-2, with sorafenib (co-incubated, concentration not stated), 10 µM, A–B, with sorafenib, read-out: Papp (Apical Basolateral)) stood at 0.35 ± 0.17 ×10⁻⁶ cm/s; in data set [2] (Caco-2, 10 µM, A–B, read-out: Papp (Apical Basolateral)) it was 0.48 ± 0.26 ×10⁻⁶ cm/s. Further, the Papp B→A at 180 min, 10 µM in data set [2] (Caco-2, with sorafenib (co-incubated, concentration not stated), 10 µM, B–A, with sorafenib, read-out: Papp (Basolateral Apical)) was 0.48 ± 0.3 ×10⁻⁶ cm/s; in data set [2] (Caco-2, 10 µM, B–A, read-out: Papp (Basolateral Apical)) it was 0.79 ± 0.65 ×10⁻⁶ cm/s. Also, the “Papp apical to basolateral” value in the data set on CaCo2 monolayer [3] (10 µM, A–B) worked out at 0.48 µm/s. In addition, in the data set with CaCo2 monolayer [4] (A–B), the “Papp (Apical Basolateral)” value is recorded as 0.13 ± 0.001 ×10^−6 cm/s. In the data set with CaCo2 monolayer [4] (B–A), the “Papp (Basolateral Apical)” value is 0.70 ± 0.30 ×10^−6 cm/s. Also, the results for the “Efflux Ratio (Papp B–A / Papp A–B)” value in the data set with CaCo2 monolayer [4] and in the data set on CaCo2 monolayer [4] (listed as erlotinib) were 5.4 and greater than 5, respectively. The “Intracellular accumulation in CaCo2 monolayer” value in the data set with CaCo2 cells [5] is on record as “just detectable”. Moreover, in the data set on WiDr cells [6], the “Intracellular accumulation in WiDr cells” value was “no erlotinib”. Further, the “Intracellular accumulation at the end of the transfer period (A->B)” value with CaCo2 cells [7] was “not detectable; also recorded: no erlotinib was detectable”. The “Intracellular accumulation at the end of the transfer period (B->A)” value in the data set with CaCo2 cells [7] (B->A incubation) is “no erlotinib was detectable”. Moreover, the blood plasma ratio in [8] (human, whole blood and plasma, oral, read-out: Blood to plasma ratio) was greater than 30. In data set [8] (standard dosing regimen), the “Fold higher in whole blood compared to plasma” value stood at 100 fold.

As to `Cc1nc(Nc2ncc(C(=O)Nc3c(C)cccc3Cl)s2)cc(N2CCN(CCO)CC2)n1` [Dasatinib, dasatinib], in the data set on WiDr cells [9], the IC50 was 60 nM. Besides, in [1], the “Log P” value is on record as 2.24, the “Log D (pH 5.5)” value is listed as −0.44 and the “Log D (pH 7.5)” value is on record as 2.17. Further, the “Intracellular accumulation in HT29 cells” value with HT29 cells was found to be 0.14 pmol/μg protein. For the same compound, the efflux ratio at 180 min, 20 µM in data set [2] (Caco-2, 20 µM, read-out: Efflux Ratio (Papp B–A / Papp A–B)) was greater than 5. In [2] (Caco-2, 20 µM, A–B, read-out: Papp (Apical Basolateral)), the Papp A→B at 180 min, 20 µM is 3.4 ± 3.4 ×10⁻⁶ cm/s. Moreover, the Papp B→A at 180 min, 20 µM in [2] (Caco-2, 20 µM, B–A, read-out: Papp (Basolateral Apical)) stood at 20.4 ± 13.5 ×10⁻⁶ cm/s. The “Efflux Ratio (Papp B–A / Papp A–B)” value in the data set with CaCo2 monolayer [3] (20 µM) worked out at 6.0. The “Total amount transferred apical to basolateral in 3 h” value in the data set with CaCo2 monolayer [3] (20 µM, A–B, 3 h) is recorded as 499.3 pmol. Moreover, the Papp basolateral to apical in the data set with CaCo2 monolayer [3] (20 µM, B–A) was 20.4 ×10⁻⁶ cm/s. Besides, the “Total amount transferred basolateral to apical in 3 h” value with CaCo2 monolayer [3] (20 µM, B–A, 3 h) is 13,889 pmol. Also, in the data set on CaCo2 monolayer [3] (20 µM, listed as dasatinib), the “Efflux Ratio (Papp B–A / Papp A–B)” value is reported as greater than 6. The “Bioavailability (animal)” value in [10] was 14–27 [32] (animal) %. The “Intracellular accumulation at the end of the transfer period (A->B)” value with CaCo2 cells [7] is listed as 1.1 pmol/μg protein.

The values are drawn from article PMC7696666, “Epithelial Transfer of the Tyrosine Kinase Inhibitors Erlotinib, Gefitinib, Afatinib, Crizotinib, Sorafenib, Sunitinib, and Dasatinib: Implications for Clinical Resistance” (Cancers, 2020).
